Assay results taken from BigSolDB 2.1.

c1ccc2c(c1)Cc1ccccc1-2
Settings | solubility (mole fraction)
in ethanol, 278.98 K | 0.00372
in ethanol, 283.99 K | 0.00455
in ethanol, 289.01 K | 0.00554
in ethanol, 294.08 K | 0.00668
in ethanol, 298.35 K | 0.00802
in ethanol, 303.36 K | 0.00973
in ethanol, 308.77 K | 0.0118
in ethanol, 313.17 K | 0.0139
in ethanol, 319.27 K | 0.0177
in ethanol, 324.95 K | 0.0216
in isopropanol, 288.28 K | 0.00221
in isopropanol, 293.69 K | 0.00313
in isopropanol, 299.5 K | 0.00453
in isopropanol, 303.17 K | 0.00565
in isopropanol, 309.06 K | 0.00802
in isopropanol, 313.78 K | 0.0105
in isopropanol, 318.24 K | 0.0135
in isopropanol, 323.17 K | 0.0179
in isopropanol, 328.25 K | 0.0237
in isopropanol, 333.45 K | 0.0314
in n-butanol, 284.27 K | 0.0059
in n-butanol, 288.82 K | 0.00724
in n-butanol, 293.76 K | 0.00906
in n-butanol, 298.88 K | 0.0113
in n-butanol, 304.06 K | 0.0139
in n-butanol, 308.28 K | 0.0168
in n-butanol, 313.93 K | 0.0212
in n-butanol, 318.16 K | 0.0251
in n-butanol, 323.16 K | 0.0304
in n-butanol, 328.25 K | 0.037
in n-butanol, 333.35 K | 0.0458
in n-butanol, 338.35 K | 0.0558
in toluene, 283.27 K | 0.0634
in toluene, 288.77 K | 0.0819
in toluene, 293.72 K | 0.102
in toluene, 298.89 K | 0.13
in toluene, 303.17 K | 0.154
in toluene, 308.81 K | 0.201
in toluene, 314.04 K | 0.252
in toluene, 319.01 K | 0.308
in toluene, 323.28 K | 0.367
